According to the supplement of paper PMC4862054:

Tests used:
Conditions in all cases: incubation time: 72 h
MFM-223 [1] = experiment: normalised viability (% of control), CellTiter-Blue; higher = more viable cells (about 100 = DMSO control)
How it was run: (§1)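 Normalised viability is given for a single listed concentration of the series. In 384-well plates, breast cancer cell lines were incubated 72 h with compound, then read with CellTiter-Blue (2 h, 37 °C) at 560/590 nm. Per-plate scaling set vehicle to 100 and a positive kill control to 0, with Z'-factor quality control.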

HCC1143 [2] = experiment: as above
How it was run: as §1

HCC1937 [3] = experiment: as above
How it was run: as §1

MDA-MB-468 [4] = experiment: as above
How it was run: as §1

CAL-120 = experiment: as above
How it was run: as §1

SK-BR-3 [5] = experiment: as above
How it was run: as §1

BT-474 [6] = experiment: as above
How it was run: as §1

HDQ-P1 = experiment: as above
How it was run: as §1

CAL-51 [7] = experiment: as above
How it was run: as §1

MDA-MB-231 = experiment: as above
How it was run: as §1

MDA-MB-453 = experiment: drug sensitivity score (DSS), CellTiter-Glo (DSS (AUC-based score)); higher = stronger drug effect (viability inhibition or cytotoxicity); extreme values may be limits of the assay
How it was run: (§2)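 Normalisation on every plate relied on 0.1 % DMSO and a positive kill control. The plates, 384-well format, held compound at 5 concentrations 10-fold apart across a compound-specific 10,000-fold range, and breast cancer cell lines in 20 µl suspension were incubated on them for 72 h before CellTox Green and then CellTiter-Glo readings. The drug sensitivity score derives from the area under the fitted dose-response curve.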

MFM-223 [8] = experiment: as above
How it was run: as §2

HCC1143 [9] = experiment: as above
How it was run: as §2

HCC1599 = experiment: as above
How it was run: as §2

HCC1937 [10] = experiment: as above
How it was run: as §2

MDA-MB-468 [11] = experiment: as above
How it was run: as §2

Hs578T = experiment: as above
How it was run: as §2

BT-549 = experiment: as above
How it was run: as §2

SK-BR-3 [12] = experiment: as above
How it was run: as §2

BT-474 [13] = experiment: as above
How it was run: as §2

CAL-51 [14] = experiment: as above
How it was run: as §2

CAL-148 = experiment: as above
How it was run: as §2

MCF-10A = experiment: as above
How it was run: as §2

MDA-MB-436 = experiment: as above
How it was run: as §2

CAL-85-1 = experiment: as above
How it was run: as §2

CO[C@H]1/C=C\C=C(/C)C(=O)NC2=CC(=O)C(NCCN(C)C)=C(C[C@@H](C)C[C@H](OC)[C@H](O)[C@@H](C)/C=C(\C)[C@@H]1OC(N)=O)C2=O [Alvespimycin]
normalised viability [%]
Conditions	BT-474 [6]	CAL-51 [7]	CAL-120	HCC1143 [2]	HCC1937 [3]	HDQ-P1	MDA-MB-231	MDA-MB-468 [4]	MFM-223 [1]	SK-BR-3 [5]
0.3 nM	–	97	–	–	–	99.3	–	–	–	–
1 nM	116	–	108	103	110	–	99	111	97.4	97.7
3 nM	–	96	–	–	–	102	–	–	–	–
10 nM	–	86.8	–	–	–	112	–	–	–	–
100 nM	28.3	–	26.7	46.8	40.7	–	35.2	44.6	27.3	19
1000 nM	27.8	–	17.4	37.7	29	–	28.3	29.3	23.4	16.3

Conditions	drug sensitivity score
BT-474 [13]	11.6
BT-549	16.1
CAL-51 [14]	13.4
CAL-85-1	13.9
CAL-148	13.3
HCC1143 [9]	12.1
HCC1599	4.92
HCC1937 [10]	12.6
Hs578T	10.6
MCF-10A	14.9
MDA-MB-436	13.1
MDA-MB-453	15.3
MDA-MB-468 [11]	11.9
MFM-223 [8]	13.1
SK-BR-3 [12]	14.5

NCC(=O)CCC(=O)O [Aminolevulinic acid]
normalised viability [%]
Conditions	BT-474 [6]	CAL-51 [7]	CAL-120	HCC1143 [2]	HCC1937 [3]	HDQ-P1	MDA-MB-231	MDA-MB-468 [4]	MFM-223 [1]	SK-BR-3 [5]
3 nM	–	105	–	–	–	95.2	–	–	–	–
10 nM	115	–	89.6	81.1	86.8	–	107	101	92.2	96.3
30 nM	–	100	–	–	–	105	–	–	–	–
100 nM	–	92.9	–	–	–	110	–	–	–	–
1000 nM	119	–	103	82.6	84.2	–	93.2	111	91.3	108
10000 nM	131	–	104	85.2	86.4	–	111	102	87.3	101
